According to ChEMBL document CHEMBL6109142 (J Med Chem, 2025):
Activity calls are given as the source filed them. The rule behind the calls is not given here.

Experiments:
[1] = target: T1, Transmembrane protease serine 2 (Homo sapiens, UniProt O15393); experiment: Inhibition of recombinant TMPRSS2 (unknown origin) extracted from baculovirus infected in Sf9 cells using Boc-QAR-AMC as substrate measured after 1 hr by fluorescence based analysis
SARS-CoV-2 [2] = experiment: Antiviral activity against SARS-CoV-2 pseudotyped with delta spike protein infected in human Calu-3 cells assessed as prevention of virus-like particle cellular entry at 300 nM preincubated with cells for 3 hrs followed by viral infection and measured after 72 hrs by ONE-Glo-Ex luciferase assay relative to control; format: functional, Severe acute respiratory syndrome coronavirus 2; details: time 75 hrs
Calu-3 = experiment: Cytotoxicity against human Calu-3 cells assessed as cell viability at 10 uM measured after 72 hrs by luminescence based Cell-Titer-Glo assay; format: toxicity; details: calu-3, 72 h
[3] = target: T1, Transmembrane protease serine 2; experiment: Inhibition of recombinant TMPRSS2 (unknown origin) extracted from baculovirus infected in Sf9 cells assessed as residual activity using Boc-QAR-AMC as substrate at 1 nM measured after 1 hr by fluorescence based analysis relative to control
SARS-CoV-2 [4] = experiment: Antiviral activity against SARS-CoV-2 EG.5.1 infected in human Calu-3 cells assessed as reduction in residual intracellular nucleocapsid value at 1 uM preincubated with cells for 3 hrs followed by viral infection and measured after 48 hrs by immunostaining based analysis; format: functional, organism-based; details: Severe acute respiratory syndrome coronavirus 2, time 51.0 hrs
[5] = Cytotoxicity against human Calu-3 cells assessed as cell viability measured after 72 hrs by luminescence based Cell-Titer-Glo assay; format: toxicity
SARS-CoV-2 [6] = experiment: Antiviral activity against SARS-CoV-2 JN.1 infected in human Calu-3 cells preincubated with cells for 3 hrs followed by viral infection and measured after 48 hrs by immunostaining based analysis; format: functional, organism-based; details: Severe acute respiratory syndrome coronavirus 2, JN.1, Calu-3
SARS-CoV-2 [7] = experiment: Antiviral activity against SARS-CoV-2 EG.5.1 infected in human Calu-3 cells preincubated with cells for 3 hrs followed by viral infection and measured after 48 hrs by immunostaining based analysis; format: functional, organism-based; details: Severe acute respiratory syndrome coronavirus 2, EG.5.1, Calu-3
SARS-CoV-2 [8] = experiment: Antiviral activity against SARS-CoV-2 EG.5.1 infected in human Calu-3 cells assessed as reduction in residual intracellular nucleocapsid value at 1 uM preincubated with cells for 3 hrs followed by viral infection and measured after 48 hrs by immunostaining based analysis relative to control; format: functional, Severe acute respiratory syndrome coronavirus 2; details: time 51 hrs
SARS-CoV-2 [9] = experiment: Antiviral activity against SARS-CoV-2 pseudotyped with delta spike protein infected in human Calu-3 cells assessed as prevention of virus-like particle cellular entry at 300 nM preincubated with cells for 3 hrs followed by viral infection and measured after 72 hrs by ONE-Glo-Ex luciferase assay; format: functional, organism-based; details: Severe acute respiratory syndrome coronavirus 2, time 75.0 hrs
Coagulation factor X = Coagulation factor X (Homo sapiens, UniProt P00742); experiment: Inhibition of recombinant human C-terminal 10 his-tagged FXa extracted from baculovirus infected in Sf9 cells assessed as inhibition constant using Mca-RPKPVE-Nval-WRK(Dnp)-NH2 as substrate incubated for 1 hr by fluorescence based analysis
Coagulation factor X, sequence (P00742 41-179 limits assumed): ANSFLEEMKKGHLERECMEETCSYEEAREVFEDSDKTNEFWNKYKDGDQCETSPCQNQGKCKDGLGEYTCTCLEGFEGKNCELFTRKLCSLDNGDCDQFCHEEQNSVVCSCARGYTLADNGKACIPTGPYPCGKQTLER
Coagulation factor X, sequence (P00742 235-488 limits assumed): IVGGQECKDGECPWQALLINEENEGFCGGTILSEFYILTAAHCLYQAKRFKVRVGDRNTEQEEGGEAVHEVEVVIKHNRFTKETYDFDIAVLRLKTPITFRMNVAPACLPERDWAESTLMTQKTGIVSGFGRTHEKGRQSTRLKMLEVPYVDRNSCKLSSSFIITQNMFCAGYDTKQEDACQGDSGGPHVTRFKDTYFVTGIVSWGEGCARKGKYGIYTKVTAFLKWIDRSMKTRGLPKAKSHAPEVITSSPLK

Procathepsin L = Procathepsin L (Homo sapiens, UniProt P07711); experiment: Inhibition of recombinant human C-terminal 6 his-tagged Cathepsin L assessed as inhibition constant using Z-LR-AMC as peptide substrate incubated for 1 hr by fluorescence based analysis
[10] = target: T1, Transmembrane protease serine 2; experiment: Inhibition of recombinant das TMPRSS2 (unknown origin) extracted from baculovirus infected in Sf9 cells assessed as inhibition constant using Boc-QAR-AMC as substrate measured after 1 hr by fluorescence based analysis

T1 sequence (O15393 1-255 limits assumed): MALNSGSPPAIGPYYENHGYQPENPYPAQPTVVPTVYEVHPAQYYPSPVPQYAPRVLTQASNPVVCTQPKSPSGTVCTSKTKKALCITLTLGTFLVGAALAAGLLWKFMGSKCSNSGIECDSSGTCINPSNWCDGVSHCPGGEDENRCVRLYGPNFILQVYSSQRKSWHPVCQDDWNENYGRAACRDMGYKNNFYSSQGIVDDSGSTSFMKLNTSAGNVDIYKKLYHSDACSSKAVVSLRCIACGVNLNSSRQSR
T1 sequence (O15393 256-492 limits assumed): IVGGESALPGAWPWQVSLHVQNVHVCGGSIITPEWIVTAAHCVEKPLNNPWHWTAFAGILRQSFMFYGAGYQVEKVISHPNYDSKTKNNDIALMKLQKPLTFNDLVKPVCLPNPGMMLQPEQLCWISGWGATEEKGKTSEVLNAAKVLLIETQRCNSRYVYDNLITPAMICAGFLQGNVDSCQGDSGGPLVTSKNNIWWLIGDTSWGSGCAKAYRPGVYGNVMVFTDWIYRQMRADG

| Structure (SMILES) | IC50 [1] [nM] | Activity (SARS-CoV-2 [2]) [%] | Activity (Calu-3) | Activity [3] [%] | Activity (SARS-CoV-2 [4]) | CC50 at 72 h [5] [nM] | EC50 (SARS-CoV-2 [6]) [nM] | EC50 (SARS-CoV-2 [7]) [nM] | Activity (SARS-CoV-2 [8]) [%] | Activity (SARS-CoV-2 [9]) | Ki (Coagulation factor X) [nM] | inhibition (Procathepsin L) | Ki (Procathepsin L) [nM] | Ki [10] [nM] |
| --- | --- | --- | --- | --- | --- | --- | --- | --- | --- | --- | --- | --- | --- | --- |
| N=C(N)NCCC[C@H](NC(=O)[C@H](Cc1ccccc1)NC(=O)[C@H](CCC(N)=O)NC(=O)CCO)C(=O)c1nc2ccccc2s1 | 1.4 | 24 | Non-toxic | 10 | Active |  |  |  |  |  |  |  |  |  |
| CN(C)C(=O)COC(=O)Cc1ccc(OC(=O)c2ccc(NC(=N)N)cc2)cc1 [CAMOSTAT] |  |  |  |  |  | 110000 | 7.5 | 201 |  |  |  |  |  |  |
| N=C(N)NCCCCC(=O)N[C@@H](CC(N)=O)C(=O)N[C@@H](Cc1ccccc1)C(=O)N[C@@H](CCCNC(=N)N)C(=O)c1nc2ccccc2s1 | 0.87 | 19 | Non-toxic | 11 | Active |  |  |  |  |  |  |  |  |  |
| N=C(N)NCCCCC(=O)N[C@@H](CCC(N)=O)C(=O)N[C@@H](CO)C(=O)N[C@@H](CCCNC(=N)N)C(=O)c1nc2ccccc2s1 | 3.2 |  | Non-toxic | 19 | Active |  |  |  |  |  |  |  |  |  |
| N=C(N)NCCCCC(=O)N[C@@H](CCC(N)=O)C(=O)N[C@@H](Cc1ccccc1)C(=O)N[C@@H](CCCNC(=N)N)C(=O)c1nccs1 | 0.74 | 20 | Non-toxic | 20 | Active |  |  |  | 14 |  |  |  |  |  |
| CC(=O)N[C@@H](CCC(N)=O)C(=O)N[C@@H](CC1CCCCC1)C(=O)N[C@@H](CCCNC(=N)N)C(=O)c1nc2ccccc2s1 | 1.3 | 13 | Non-toxic | 18 | Active |  |  |  |  |  |  |  |  |  |
| CC(=O)N[C@@H](CCC(N)=O)C(=O)N[C@@H](Cc1ccccc1)C(=O)N[C@@H](CCCNC(=N)N)C(=O)c1nc2ccccc2[nH]1 |  |  |  |  |  |  |  |  |  | Active |  |  |  |  |
| CC(C)[C@H](NC(=O)[C@H](Cc1cscn1)NC(=O)CCc1ccccc1)C(=O)N[C@@H](CCCNC(=N)N)C(=O)c1nc2ccccc2s1 | 3 | 15 | Non-toxic | 34 | Active |  |  |  |  |  |  |  |  |  |
| COCCC(=O)N[C@@H](CCC(N)=O)C(=O)N[C@@H](Cc1ccccc1)C(=O)N[C@@H](CCCNC(=N)N)C(=O)c1nc2ccccc2s1 | 0.59 | 17 | Non-toxic | 2 | Active |  | 1.5 | 4.1 |  |  | 102 | inactive |  |  |
| CS(=O)(=O)N[C@@H](CCC(N)=O)C(=O)N[C@@H](Cc1ccccc1)C(=O)N[C@@H](CCCNC(=N)N)C(=O)c1nc2ccccc2s1 |  | 16 | Non-toxic | 13 | Active |  | 3.3 | 29.1 |  |  |  | inactive |  |  |
| N=C(N)NCCC[C@H](NC(=O)[C@H](Cc1ccccc1)NC(=O)[C@@H]1CCC(=O)NCCCC(=O)N1)C(=O)c1nc2ccccc2s1 | 1 | 20 | Non-toxic | 3 | Active |  |  |  |  |  |  |  |  |  |
| N=C(N)NCCC[C@H](NC(=O)OCc1ccccc1)C(=O)N[C@@H](CCC(N)=O)C(=O)N[C@@H](Cc1ccccc1)C(=O)N[C@@H](CCCNC(=N)N)C(=O)c1nc2ccccc2s1 | 1.4 | 33 | Non-toxic | 7 | Active |  |  |  |  |  |  |  |  |  |
| N=C(N)NCCCCC(=O)N[C@@H](CCC(N)=O)C(=O)N[C@@H](Cc1ccccc1)C(=O)N[C@@H](CCCNC(=N)N)C(=O)c1nc2ccccc2s1 | 1.4 | 13 | Non-toxic | 16 | Active |  |  |  |  |  |  |  |  |  |
| N=C(N)NCCCCC(=O)N[C@H](CCC(N)=O)C(=O)N[C@@H](Cc1ccccc1)C(=O)N[C@@H](CCCNC(=N)N)C(=O)c1nc2ccccc2s1 | 1.4 | 15 | Non-toxic | 28 | Active |  |  |  |  |  |  |  |  |  |
| C[C@H](NC(=O)CCCCNC(=N)N)C(=O)N[C@@H](Cc1ccccc1)C(=O)N[C@@H](CCCNC(=N)N)C(=O)c1nc2ccccc2s1 | 0.66 | 14 | Non-toxic | 8 | Active |  |  |  |  |  |  |  |  |  |
| CCOC(=O)N[C@@H](CCCNC(=N)N)C(=O)N[C@@H](CCC(N)=O)C(=O)N[C@@H](Cc1ccccc1)C(=O)N[C@@H](CCCNC(=N)N)C(=O)c1nc2ccccc2s1 | 0.89 | 17 | Non-toxic | 3 | Active |  | 1.3 | 3.9 |  |  |  |  | 695 | 0.095 |
| CC(=O)N[C@@H](CCC(N)=O)C(=O)N[C@@H](Cc1ccccc1)C(=O)N[C@@H](CCCNC(=N)N)C(=O)c1nccn1C |  |  |  |  |  |  |  |  |  | Active |  |  |  |  |
| CN(C)C(=O)CC[C@H](NC(=O)CCCCNC(=N)N)C(=O)N[C@@H](Cc1ccccc1)C(=O)N[C@@H](CCCNC(=N)N)C(=O)c1nc2ccccc2s1 | 0.62 | 18 | Non-toxic | 16 | Active |  |  |  |  |  |  |  |  |  |
| CS(=O)(=O)N[C@@H](CCC(N)=O)C(=O)N[C@@H](Cc1ccccc1)C(=O)N[C@@H](CCCNC(=N)N)C(=O)c1nccs1 | 0.87 | 14 | Non-toxic | 11 | Active | 110000 | 8.5 | 21.7 |  |  | 9.2 | inactive |  |  |
| CC(=O)N[C@@H](CCC(N)=O)C(=O)N[C@@H](Cc1ccccc1)C(=O)N[C@@H](CCCNC(=N)N)C(=O)CN1CCCCC1 |  |  |  |  |  |  |  |  |  | Active |  |  |  |  |
| N=C(N)NCCCCC(=O)N[C@@H](Cc1ccccc1)C(=O)N[C@@H](Cc1ccccc1)C(=O)N[C@@H](CCCNC(=N)N)C(=O)c1nc2ccccc2s1 | 0.66 | 23 | Non-toxic | 10 | Active |  |  |  |  |  |  |  |  |  |
